According to patent US8338471B2, “(2,5-dioxoimidazolidin-i-yl)-n-hydroxy-acetamides as metalloproteinase inhibitors” (Medivir AB, priority 2005, dated 2012):

Assays:
Format in all cases: biochemical
recombinant human TACE = target: T1, recombinant human TACE (Homo sapiens, UniProt P78536); test: TACE enzyme assay (FRET substrate), selectivity versus MMP-12; conditions: fold difference in Ki for TACE compared to MMP-12
T1 construct: purchased R&D Systems
Procedure: The activity was measured by a continuous detection of increased fluorescence intensity during 12 min. The substrate consisted of a peptide with a fluorescent donor 7-methoxycoumarin (Mca) and a quenching acceptor 2,4-dinitrophenyl group (Dpa), typically Mca-P-L-A-Q-A-V-Dpa-R-S-S-S-R-NH2 (R&D Systems, ES003). The cleavage site by TACE is the peptide bond between Ala and Val. The compounds were tested at a range of concentrations while the enzyme and substrate concentrations were fixed. A typical TACE assay employs recombinant human TACE (supplied by R&D Systems) in an assay buffer (25 mM Tris-HCl, pH=9.0, 2.5 μM ZnCl2, 0.005% Brij 35). The enzyme concentration (TACE) used was 100 ng/ml, the substrate was prepared at a 100 μM stock solution in DMSO and a 96-well polypropylene plate was used for the reaction mixtures. To each well of the plate was added assay buffer 90.0 μl, enzyme (TACE) 0.09 μl and inhibitor 1 μl. The reactions were started by addition of substrate 10 μl/well, giving a substrate concentration of 10 μM and a total volume of 100 μl/well. The total concentration of DMSO was not above 1%. The assay was performed at ambient temperature. Product fluorescence ([…]) was monitored with a Thermo Labsystems Fluoroskan Ascent plate reader. The Ki was determined by Prism Software.
(§1) The selectivity for MMP-12 over MMP-3 and TACE was evaluated for a representative selection of the compounds of the invention by comparing the Ki figures obtained when tested in the corresponding enzyme assays, such as those described above. The selectivity is presented as the fold difference in Ki for TACE and MMP-3 compared to MMP-12 and is calculated as the ratio Ki(TACE)/KiMMP-12 and Ki(MMP-3)/KiMMP-12 respectively.

recombinant human MMP-3 = target: T2, recombinant human MMP-3 (Homo sapiens, UniProt P08254); test: MMP-3 enzyme assay (FRET substrate), selectivity versus MMP-12; conditions: fold difference in Ki for MMP-3 compared to MMP-12
T2 construct: purchased R&D Systems
T2 sequence (P08254 100-477): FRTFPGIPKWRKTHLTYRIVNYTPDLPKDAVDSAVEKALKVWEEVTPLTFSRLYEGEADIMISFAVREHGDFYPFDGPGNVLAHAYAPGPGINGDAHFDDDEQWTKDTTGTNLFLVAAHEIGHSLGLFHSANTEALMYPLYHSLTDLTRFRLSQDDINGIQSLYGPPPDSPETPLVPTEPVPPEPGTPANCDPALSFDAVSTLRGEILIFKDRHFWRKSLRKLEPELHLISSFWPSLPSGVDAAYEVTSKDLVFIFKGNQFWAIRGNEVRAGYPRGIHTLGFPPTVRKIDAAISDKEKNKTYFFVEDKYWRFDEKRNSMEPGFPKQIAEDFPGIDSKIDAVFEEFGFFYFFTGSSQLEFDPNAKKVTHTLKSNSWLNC
Procedure: The activity was measured by a continuous detection of increased fluorescence intensity during 12 min. The substrate consisted of a peptide with a fluorescent donor 7-methoxycoumarin (Mca) and a quenching acceptor 2,4-dinitrophenyl group (Dpa), typically Mca-Arg-Pro-Lys-Pro-Val-Glu-Nval-Trp-Arg-Lys(Dnp)-NH2 (R&D Systems, ES002). The cleavage site by MMP-3 is the peptide bond between Glu and Nval. The compounds were tested at a range of concentrations, the enzyme concentration (MMP-3) was fixed at 400 ng/ml and the substrate concentrations was 10 μM. The MMP-3 assay used employs recombinant human MMP-3 (supplied by R&D Systems) in an assay buffer of 50 mM Tris-HCl, 200 mM calcium acetate at pH=7.5. The MMP-3 enzyme was preactivated by dilution to 0.119 mg/ml into 1 mM APMA (p-aminophenylmercuric acetate) followed by incubation at 37° C. for 24 hours. The substrate was prepared at a 100 μM stock solution in DMSO and a 96-well polypropylene plate was used for the reaction mixtures. To each well of the plate was added assay buffer 90.0 μl, enzyme (MMP-3) 0.3 μl and inhibitor 1 μl. The reactions were started by addition of substrate, 10 μl/well, to a total volume of 100 μl/well. The total concentration of DMSO was not above 1%. The assay was performed at ambient temperature. Product fluorescence ([…]) was monitored with a Thermo Labsystems Fluoroskan Ascent plate reader. The Ki was determined by Prism Software.
as §1

recombinant human MMP-12 = target: T3, recombinant human MMP-12 (Homo sapiens, UniProt P39900); test: MMP-12 enzyme assay (FRET substrate)
T3 construct: purchased R&D Systems; host or cells: mouse myeloma cell line NS-40 (so in the source)
T3 sequence (P39900 106-470): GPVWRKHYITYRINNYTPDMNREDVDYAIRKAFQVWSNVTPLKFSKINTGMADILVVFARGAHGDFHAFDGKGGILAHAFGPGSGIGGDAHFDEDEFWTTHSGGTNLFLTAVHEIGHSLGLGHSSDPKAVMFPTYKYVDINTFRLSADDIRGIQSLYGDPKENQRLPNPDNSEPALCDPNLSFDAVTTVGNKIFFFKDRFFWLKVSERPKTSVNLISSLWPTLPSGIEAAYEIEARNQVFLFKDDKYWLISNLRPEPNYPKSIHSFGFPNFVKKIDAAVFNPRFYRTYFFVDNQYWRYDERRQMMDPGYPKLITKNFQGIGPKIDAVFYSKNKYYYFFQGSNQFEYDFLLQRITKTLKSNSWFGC
Procedure: A typical MMP-12 enzyme assay employs recombinant human MMP-12 catalytic domain expressed and purified as described by Parkar A. A. et al, (2000), Protein Expression and Purification, 20:152. The purified enzyme can be used to monitor inhibitors of activity as follows: MMP-12 (50 ng/ml final concentration) is incubated for 60 minutes at room temperature with the synthetic substrate Mac-Pro-Cha-Gly-Nva-His-Ala-Dpa-NH2 in assay buffer (0.1M “Tris-HCl” (trade mark) buffer, pH 7.3 containing O.1M NaCl, 20 mM CaCl2, 0.020 mM ZnCl and 0.05% (w/v) “Brij 35” (trade mark) detergent) in the presence (5 concentrations) or absence of inhibitors. Activity is determined by measuring the fluorescence at λex 320 nm and λem 405 nm. Percent inhibition is calculated as follows: % Inhibition is equal to the (Fluorescenceplus inhibitor−Fluorescencebackground); divided by the (Fluorescenceminus inhibitor−Fluorescencebackground);
A favoured assay employs full length recombinant human MMP-12, amino acid residues 1 to 470 (Shapiro et al 1993, J Biol Chem 268:23824-23829) expressed in mouse myeloma cell line NS-40. The purified rhMMP-12 typically has the N terminal sequence L17PLNSSTSLE and an SDS-PAGE apparent molecular mass of approx. 56 kDa. Such proteins are available from R&D Systems, USA as a lyophilised 0.2 um filtered solution of 25 mM MES, 0.15M NaCl, 10 mMCaCl2, 0.15% Brij 35, pH 5.5. Auto-activation of the rhMMP-12 can be achieved by dilution to 0.05 mg/ml into TCNB buffer (50 mMTris, 10 mM CaCl2, 0.15M NaCl, 0.05% Brij 35, pH 7) and incubation at 37 degrees for 30 hours. A preferred buffer for MMP work is 50 mM Tris.HCl, pH 7.5, 200 mM Ca acetate.
Suitable FRET substrates include (7-methoxycoumarin-4-yl)acetyl-Pro-Leu-Gly-Leu-(3-(2,4-dinitrophenoyl)-L-2,3-diaminopropionyl)-Ala-Arg-NH2, commercially available from R&D Systems, USA. Typical specific activities are >500 picomol/min/ug, with rhMMP-12 measured with 10 uM of this substrate, 20 ng activated enzyme in 100 ul TCNB buffer at room temperature.
An alternative general MMP substrate is Dnp-PLGLWAD-R-NH2.
Category A indicates ≦50 nM inhibition, category B indicates 51-200 nM inhibition and category C indicates >200 nM: […]

T1 sequence (P78536 215-824): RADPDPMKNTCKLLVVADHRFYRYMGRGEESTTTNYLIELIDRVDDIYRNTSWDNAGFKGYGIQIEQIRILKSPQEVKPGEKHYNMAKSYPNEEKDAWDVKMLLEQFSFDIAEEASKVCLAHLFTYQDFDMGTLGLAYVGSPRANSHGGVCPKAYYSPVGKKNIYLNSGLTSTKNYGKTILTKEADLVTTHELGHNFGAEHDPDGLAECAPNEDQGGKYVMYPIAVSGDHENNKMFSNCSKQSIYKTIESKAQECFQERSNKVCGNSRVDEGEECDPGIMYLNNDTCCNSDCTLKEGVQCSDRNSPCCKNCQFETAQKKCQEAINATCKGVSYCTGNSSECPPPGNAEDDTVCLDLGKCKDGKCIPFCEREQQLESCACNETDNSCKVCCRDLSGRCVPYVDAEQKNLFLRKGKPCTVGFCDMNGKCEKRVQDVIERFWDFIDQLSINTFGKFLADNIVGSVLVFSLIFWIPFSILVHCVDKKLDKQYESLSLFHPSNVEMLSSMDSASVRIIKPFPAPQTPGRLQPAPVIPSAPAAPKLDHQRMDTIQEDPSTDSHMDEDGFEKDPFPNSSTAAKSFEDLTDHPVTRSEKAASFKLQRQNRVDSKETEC

Cc1ccc(CCC2NC(=O)N(C(C(=O)NO)C(C)C)C2=O)cc1 (stereo not drawn) [Example 30, 2-[2,5-Dioxo-4-(2-p-tolylethyl)-imidazolidin-1-yl]-N-hydroxy-3-methyl-butyramide]
Ki(TACE)/Ki(MMP-12) (recombinant human TACE): 2200
Ki(MMP-3)/Ki(MMP-12) (recombinant human MMP-3): 75
Ki (recombinant human MMP-12): ≤ 50 nM

CC(C)[C@H](C(=O)NO)N1C(=O)N[C@@H](CCc2ccccc2F)C1=O [Example 36, 2-{4-[2-(2-Fluorophenyl)-ethyl]-2,5-dioxoimidazolidin-1-yl}-N-hydroxy-3-methylbutyramide]
Ki(TACE)/Ki(MMP-12) (recombinant human TACE): 280
Ki(MMP-3)/Ki(MMP-12) (recombinant human MMP-3): 240
Ki (recombinant human MMP-12): ≤ 50 nM

CC(C)[C@H](C(=O)NO)N1C(=O)N[C@@H](CCc2ccc(F)cc2)C1=O [Example 38, 2-{4-[2-(4-Fluoro-phenyl)-ethyl]-2,5-dioxoimidazolidin-1-yl}-N-hydroxy-3-methylbutyramide]
Ki(TACE)/Ki(MMP-12) (recombinant human TACE): 390
Ki(MMP-3)/Ki(MMP-12) (recombinant human MMP-3): 150
Ki (recombinant human MMP-12): ≤ 50 nM
